US20250127788A1, “PHARMACEUTICAL COMPOSITION CONTAINING TRIAZINE DERIVATIVE” (Shionogi & Co., Ltd., priority 2021, published 2025)
Where two headings read alike, the source gives them in different places.

What was measured:
[1] = target: Recombinant SARS-CoV-2 3CL Protease (Severe acute respiratory syndrome coronavirus 2 (2019-nCoV) (SARS-CoV-2), UniProt P0DTD1); experiment: Test Example 2: inhibitory activity test against SARS-CoV-2 3CL protease; format: biochemical; settings: class symbols
SARS-CoV-2 [2] = experiment: microbe, parasite or virus in culture; format: cell-based; settings: Severe acute respiratory syndrome coronavirus 2, 72 h; VeroE6/TMPRSS2 cells, 3 days; class symbols
[3] = target: SARS-CoV-2 3CL Protease WT (Severe acute respiratory syndrome coronavirus 2 (2019-nCoV) (SARS-CoV-2), UniProt P0DTD1); experiment: biochemical; settings: read-out: EC50 (table head; method calculates IC50)
[4] = tested on: SARS-CoV-2 Omicron Strain; experiment: Test Example 1-3: CPE suppression in Vero E6/TMPRSS2 cells, Omicron strains; format: cell-based
SARS-CoV Hanoi strain = experiment: microbe, parasite or virus in culture; settings: Severe acute respiratory syndrome coronavirus, VeroE6/TMPRSS2, 72 h, read-out: EC50 (50% virus infected cell death inhibitory concentration)
SARS-CoV-2 [5] = experiment: microbe, parasite or virus in culture; format: cell-based; settings: Severe acute respiratory syndrome coronavirus 2, HEK-293T; HEK293T/ACE2-TMPRSS2 cells; strains WK-521, QK002, TY7-501, TY8-612, TY11-927-P1
[6] = tested on: SARS-CoV-2 hCoV19/Japan/TY11-927/2021 strain; format: in vivo, Syrian hamsters; settings: 3 days after start of living together
HCoV-OC43 = experiment: microbe, parasite or virus in culture; settings: Betacoronavirus 1, OC43, MRC5, 42 h, read-out: EC90 (90% HCoV-OC43 viral replication inhibitory concentration)
HCoV-229E = experiment: Test Example 8: antiviral effect on HCoV-229E (MRC-5 cells, CellTiter-Glo); format: cell-based; settings: Human coronavirus 229E, MRC5, read-out: EC50 (50% HCoV-229E infected cell death inhibitory concentration), 72 hours
Protocol: Test Example 8: Antiviral Effect on HCoV-229E
The test sample is preliminarily diluted with DMSO to an appropriate concentration, and a 3-fold serial dilution series is prepared and then dispensed into a 96-well plate and diluted in a maintenance medium (MEM, 2% FBS, penicillin-streptomycin).
MRC-5 cells (2×10^4 cells/well) suspended in a subculture medium (DMEM, 10% FBS, penicillin-streptomycin) are seeded in a 96-well plate a day before infection, and the next day, HCoV-229E (1000 TCID50/well) suspended in a maintenance medium (MEM, 2% FBS, penicillin-streptomycin) is infected for 1 hour. Thereafter, virus fluid is removed, a maintenance medium including a test reagent is added, and culturing is carried out in a CO2 incubator for 72 hours. Furthermore, in order to examine cytotoxicity of the test reagent, the same operation is performed in the absence of virus.
After returning the plate cultured for 72 hours to room temperature, CellTiter-Glo (registered trademark) 2.0 is dispensed into each well and mixed with a plate mixer. After a certain time interval, the luminescence signal (Lum) is measured with a plate reader.
When x is taken as the logarithmic value of the compound concentration and y as % Efficacy, the inhibition curve is approximated by the following Logistic regression equation, and the value of x when substituting 50(%) for y is calculated as EC50.
[formula] […]

[7] = tested on: SARS-CoV-2 hCoV-19/Japan/TY38-873/2021; experiment: Test Example 10-2: CPE suppression in HEK293T/ACE2-TMPRSS2 cells (TY38-873); format: cell-based; settings: Severe acute respiratory syndrome coronavirus 2, HEK-293T
in vitro = settings: human
[8] = tested on: SARS-CoV-2 hCoV-19/Japan/TY7-501/2021; experiment: Test Example 9: influence of human serum and mouse serum on anti-SARS-CoV-2 activity; format: cell-based; settings: Severe acute respiratory syndrome coronavirus 2, serum 100% condition by linear regression
[9] = tested on: SARS-CoV-2 hCoV19/Japan/TY11-927/2021 strain; set-up: species or system Syrian hamsters; settings: in vivo
[10] = tested on: SARS-CoV-2 hCoV19/Japan/TY11-927/2021 strain; format: in vivo, Syrian hamsters; settings: 6 days after start

Compound: Cn1cnc(Cn2c(=O)nc(Nc3cc4cn(C(F)F)nc4cc3Cl)n(Cc3cc(F)c(F)c(F)c3)c2=O)n1 [Compound I-030]
- IC50 [1]: < 100 nM
- EC50 (SARS-CoV-2 [2]): 1000 to 10000 nM

Compound: Cc1cncc(-n2c(=O)nc(Nc3cc4cn(C)nc4cc3F)n(Cc3ccc(F)c(C#N)c3)c2=O)c1 [Compound I-018]
- IC50 [1]: < 100 nM
- EC50 (SARS-CoV-2 [2]): < 1000 nM

Compound: N#Cc1cc(Cn2c(Nc3cc4cn(C(F)F)nc4cc3Cl)nc(=O)n(-c3cncc4ccccc34)c2=O)ccc1F [Compound I-024]
- IC50 [1]: < 100 nM
- EC50 (SARS-CoV-2 [2]): < 1000 nM

Compound: Cc1cc2nn(C)cc2cc1Nc1nc(=O)n(-c2cncc3ccccc23)c(=O)n1Cc1cc(F)c(F)c(F)c1 [Compound I-013]
- IC50 [1]: < 100 nM
- EC50 (SARS-CoV-2 [2]): 1000 to 10000 nM

Compound: Cc1cncc(-n2c(=O)nc(Nc3cc4cn(C)nc4cc3F)n(Cc3cc(F)c(F)c(F)c3)c2=O)c1 [Compound I-002]
- IC50 [1]: < 100 nM
- EC50 (SARS-CoV-2 [2]): < 1000 nM

Compound: Cn1cnc(Cn2c(=O)nc(Nc3cc4cn(CCO)nc4cc3Cl)n(Cc3cc(F)c(F)c(F)c3)c2=O)n1 [Compound I-028]
- IC50 [1]: < 100 nM
- EC50 (SARS-CoV-2 [2]): 1000 to 10000 nM

Compound: Cn1cnc(Cn2c(=O)nc(Nc3cc4cn(C)nc4cc3Cl)n(Cc3cc(F)c(F)c(F)c3)c2=O)n1 [Compound I-021]
- IC50 [1]: < 100 nM
- EC50 (SARS-CoV-2 [2]): < 1000 nM

Compound: Cc1cncc(-n2c(=O)nc(Nc3cc4cn(C)nc4cc3C)n(Cc3cc(F)c(F)c(F)c3)c2=O)c1 [Compound I-004]
- IC50 [1]: < 100 nM
- EC50 (SARS-CoV-2 [2]): 1000 to 10000 nM

Compound: Cc1cc2nn(C)cc2cc1Nc1nc(=O)n(-c2cncc3ccccc23)c(=O)n1Cc1ccc(F)c(C#N)c1 [Compound I-027]
- IC50 [1]: < 100 nM
- EC50 (SARS-CoV-2 [2]): < 1000 nM

Compound: Cn1cc2cc(Nc3nc(=O)n(-c4cncc5ccccc45)c(=O)n3Cc3ccc(F)c(C#N)c3)c(Cl)cc2n1 [Compound I-015]
- IC50 [1]: < 100 nM
- EC50 (SARS-CoV-2 [2]): < 1000 nM

Compound: Cc1cncc(-n2c(=O)nc(Nc3cc4cn(C)nc4cc3C)n(Cc3ccc(F)c(C#N)c3)c2=O)c1 [Compound I-019]
- IC50 [1]: < 100 nM
- EC50 (SARS-CoV-2 [2]): < 1000 nM

Compound: Cc1nc2cc(Cl)c(Nc3nc(=O)n(Cc4ncn(C)n4)c(=O)n3Cc3cc(F)c(F)c(F)c3)cc2n1C [Compound I-022]
- IC50 [1]: < 100 nM
- EC50 (SARS-CoV-2 [2]): 1000 to 10000 nM

Compound: Cc1cncc(-n2c(=O)nc(Nc3cc4cn(C)nc4cc3Cl)n(Cc3cc(F)c(F)c(F)c3)c2=O)c1
- IC50 [3]: 16.7 nM

Compound: Cn1cc2cc(Nc3nc(=O)n(-c4cncc5ccccc45)c(=O)n3Cc3cc(F)c(F)c(F)c3)c(Cl)cc2n1 [Compound I-014]
- IC50 [1]: < 100 nM
- EC50 (SARS-CoV-2 [2]): < 1000 nM

Compound: Cn1cc2cc(Nc3nc(=O)n(-c4cncc5ccccc45)c(=O)n3Cc3ccc(F)c(C#N)c3)c(F)cc2n1 [Compound I-025]
- IC50 [1]: < 100 nM
- EC50 (SARS-CoV-2 [2]): < 1000 nM

Compound: Cc1cncc(-n2c(=O)nc(Nc3cc4cn(C(F)F)nc4cc3Cl)n(Cc3ccc(F)c(C#N)c3)c2=O)c1 [Compound I-026]
- IC50 [1]: < 100 nM
- EC50 (SARS-CoV-2 [2]): < 1000 nM

Compound: O=c1nc(Nc2cc3cn(CCN4CCOCC4)nc3cc2Cl)n(Cc2cc(F)c(F)c(F)c2)c(=O)n1-c1cncc2ccccc12 [Compound I-020]
- IC50 [1]: < 100 nM
- EC50 (SARS-CoV-2 [2]): 1000 to 10000 nM

Compound: Cc1cncc(-n2c(=O)nc(Nc3ccc4nn(CC(F)F)cc4c3)n(Cc3ccc(F)c(C#N)c3)c2=O)c1 [Compound I-011]
- IC50 [1]: < 100 nM
- EC50 (SARS-CoV-2 [2]): < 1000 nM

Compound: Cc1nc2cc(Cl)c(Nc3nc(=O)n(-c4cncc5ccccc45)c(=O)n3Cc3cc(F)c(F)c(F)c3)cc2n1C [Compound I-032]
- IC50 [1]: < 100 nM
- EC50 (SARS-CoV-2 [2]): 1000 to 10000 nM

Compound: N#Cc1cc(Cn2c(Nc3ccc4nn(CC(F)F)cc4c3)nc(=O)n(-c3cncc4ccccc34)c2=O)ccc1F [Compound I-009]
- IC50 [1]: < 100 nM
- EC50 (SARS-CoV-2 [2]): < 1000 nM

Compound: O=c1nc(Nc2ccc3nn(CC(F)F)cc3c2)n(Cc2cc(F)c(F)c(F)c2)c(=O)n1-c1cncc2ccccc12 [Compound I-034]
- IC50 [1]: < 100 nM
- EC50 (SARS-CoV-2 [2]): < 1000 nM

Compound: Cn1cnc(Cn2c(=O)nc(Nc3cc4cn(CC(F)F)nc4cc3Cl)n(Cc3cc(F)c(F)c(F)c3)c2=O)n1 [Compound I-029]
- IC50 [1]: < 100 nM
- EC50 (SARS-CoV-2 [2]): < 1000 nM

Compound: CC(=O)N1CC(n2cc3cc(Nc4nc(=O)n(-c5cncc6ccccc56)c(=O)n4Cc4cc(F)c(F)c(F)c4)c(Cl)cc3n2)C1 [Compound I-007]
- IC50 [1]: < 100 nM

Compound: Cn1cc2cc(Nc3nc(=O)n(-c4cncc5ccccc45)c(=O)n3Cc3cc(F)c(F)c(F)c3)ccc2n1 [Compound I-016]
- IC50 [1]: < 100 nM
- EC50 (SARS-CoV-2 [2]): < 1000 nM

Compound: CC(=O)NCCn1cc2cc(Nc3nc(=O)n(-c4cncc5ccccc45)c(=O)n3Cc3cc(F)c(F)c(F)c3)c(Cl)cc2n1 [Compound I-033]
- IC50 [1]: < 100 nM
- EC50 (SARS-CoV-2 [2]): 1000 to 10000 nM

Compound: Cc1nc2cc(C)c(Nc3nc(=O)n(Cc4c[nH]cn4)c(=O)n3Cc3cc(F)c(F)c(F)c3)cc2s1 [Compound I-001]
- IC50 [1]: 1000 to 10000 nM

Compound: Cn1cc2cc(Nc3nc(=O)n(-c4cncc(CO)c4)c(=O)n3Cc3cc(F)c(F)c(F)c3)ccc2n1 [Compound I-008]
- IC50 [1]: 100 to 1000 nM

Compound: Cn1cnc(Cn2c(=O)[nH]/c(=N\c3cc4cn(C)nc4cc3Cl)n(Cc3cc(F)c(F)cc3F)c2=O)n1
- EC50 ([4]; Severe acute respiratory syndrome coronavirus 2, VeroE6/TMPRSS2, Omicron TY38-871 (BA.1.1)): 360 nM
- EC50 ([4]; Severe acute respiratory syndrome coronavirus 2, VeroE6/TMPRSS2, Omicron TY38-873 (BA.1)): 290 nM
- EC50 ([4]; Severe acute respiratory syndrome coronavirus 2, VeroE6/TMPRSS2, Omicron TY40-385 (BA.2)): 520 nM
- EC50 ([4]; Severe acute respiratory syndrome coronavirus 2, VeroE6/TMPRSS2, Omicron TY41-686 (XE)): 440 nM
- EC50 ([4]; Severe acute respiratory syndrome coronavirus 2, VeroE6/TMPRSS2, Omicron TY41-702 (BA.5)): 400 nM
- EC50 ([4]; Severe acute respiratory syndrome coronavirus 2, VeroE6/TMPRSS2, Omicron TY41-703 (BA.4)): 220 nM
- EC50 ([4]; Severe acute respiratory syndrome coronavirus 2, VeroE6/TMPRSS2, Omicron TY41-716 (BA.2.75)): 300 nM
- EC50 (SARS-CoV Hanoi strain): 209 nM
- EC50 (SARS-CoV-2 [5]): 26 to 58 nM
- intranasal concha virus titer of uninfected hamster co-housed with treated infected hamster [6]: 2.89 log10 TCID50/mL
- lung virus titer of uninfected hamster co-housed with treated infected hamster [6]: 2.97 log10 TCID50/mL
- EC90 (HCoV-OC43): 74 nM
- EC50 (HCoV-229E): 5530 nM
- EC50 [7]: 83 nM
- CC50 (in vitro): > 200000 nM
- EC50 ([8]; human serum, read-out: human serum PA-EC50 (protein-adjusted EC50)): 3020 nM
- EC50 ([8]; mouse serum, read-out: mouse serum PA-EC50 (protein-adjusted EC50)): 3930 nM
- lung virus titer of uninfected hamsters co-housed with treated infected hamster [9]: the detection limit value or less
- lung virus titer of administered hamsters co-housed with infected hamster ([10]; 30 mg/kg oral twice a day for six days): 3.48 log10 PFU50/mL
- lung virus titer of administered hamsters co-housed with infected hamster ([10]; 200 mg/kg oral twice a day for six days): a detection limit value or less
